{"source": "paper PMC3769965", "about": "(Biochemistry, 2013)", "target": "Eis_Msm (Mycolicibacterium smegmatis, UniProt A0QY29)", "assay": "DTNB initial rate", "assay_type": "biochemical", "settings": "AcCoA, 50 mM Tris-HCl pH 8.0"}
{"smiles": "NC[C@@H]1O[C@H](O[C@H]2[C@@H](O)[C@H](O[C@@H]3[C@@H](O)[C@H](N)C[C@H](N)[C@H]3O[C@H]3O[C@H](CO)[C@@H](O)[C@H](O)[C@H]3N)O[C@@H]2CO)[C@H](N)[C@@H](O)[C@@H]1O", "note": "[PAR, paromomycin]", "values": [{"measurement": "DTNB initial rate (CoA release); LCMS of tri-acetylation", "result": "with Eis_Mtb, Eis_Msm, and all Eis_Mtb-mutants, PAR was always tri-acetylated"}]}
